Where “and” joins values, the source holds several entries; their conditions need not be identical. Equal entries are not always repeated. Inconclusive results and toxic doses are left out. Rule for the calls: active = survival T/C of 150% or more; inactive = T/C below 125% in these data. Square brackets hold non-standard residues; d marks the D form. Peptide text beside a SMILES is read from it. * marks the point of attachment. Trt = c1ccc(C(c2ccccc2)(c2ccccc2)*)cc1; Cbz = O=C(OCc1ccccc1)*; Nva = CCC[CH](N)C(=O)O; Bn = c1ccc(C*)cc1; βAla = NCCC(=O)O
Test system: P388 leukemia ip, CD2F1 mice, survival T/C
Test: NCI In Vivo Anticancer Drug Screen. Data for tumor model P388 Leukemia (intraperitoneal) in CD2F1 (CDF1) mice
Settings: endpoint: median survival time, higher = longer survival
In short: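 Mice carrying the transplanted tumor received test compound or vehicle. Survival was recorded in each group, and the value is the treated-group measurement divided by that of the vehicle-treated control group.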

[1] = dose: 100.0 mg/kg/injection, schedule: Q04DX003 (ip), vehicle: saline with Tween-80
[2] = dose: 200.0 mg/kg/injection, schedule: Q01DX009 (ip), vehicle: saline with Tween-80
[3] = dose: 100.0 mg/kg/injection, schedule: Q01DX009 (ip), vehicle: saline with Tween-80
[4] = dose: 50.0 mg/kg/injection, schedule: Q01DX009 (ip), vehicle: saline
[5] = dose: 100.0 mg/kg/injection, schedule: Q01DX009 (ip), vehicle: saline
[6] = dose: 200.0 mg/kg/injection, schedule: Q01DX009 (ip), vehicle: saline
[7] = dose: 60.0 mg/kg/injection, schedule: Q01DX005 (ip), vehicle: Klucel (hydroxypropylcellulose) (HPC)
[8] = dose: 120.0 mg/kg/injection, schedule: Q01DX005 (ip), vehicle: Klucel (hydroxypropylcellulose) (HPC)
[9] = dose: 240.0 mg/kg/injection, schedule: Q01DX005 (ip), vehicle: Klucel (hydroxypropylcellulose) (HPC)
[10] = dose: 100.0 mg/kg/injection, schedule: Q01DX001 (ip), vehicle: saline with Tween-80
[11] = dose: 200.0 mg/kg/injection, schedule: Q01DX001 (ip), vehicle: saline with Tween-80
[12] = dose: 400.0 mg/kg/injection, schedule: Q01DX001 (ip), vehicle: saline with Tween-80
[13] = dose: 50.0 mg/kg/injection, schedule: Q01DX009 (ip), vehicle: Klucel (hydroxypropylcellulose) (HPC)
[14] = dose: 100.0 mg/kg/injection, schedule: Q01DX009 (ip), vehicle: Klucel (hydroxypropylcellulose) (HPC)
[15] = dose: 200.0 mg/kg/injection, schedule: Q01DX009 (ip), vehicle: Klucel (hydroxypropylcellulose) (HPC)

Measured: T/C

c1onc2cc3c(cc12)OCO3
inactive: dose: 0.39 mg/kg/injection, schedule: Q01DX009 (ip), vehicle: Klucel (hydroxypropylcellulose) (HPC) 86 % of control and 88 % of control | dose: 0.78 mg/kg/injection, schedule: Q01DX009 (ip), vehicle: Klucel (hydroxypropylcellulose) (HPC) 89 % of control and 95 % of control | dose: 1.56 mg/kg/injection, schedule: Q01DX009 (ip), vehicle: Klucel (hydroxypropylcellulose) (HPC) 124 % of control and 89 % of control and 93 % of control | dose: 3.13 mg/kg/injection, schedule: Q01DX009 (ip), vehicle: Klucel (hydroxypropylcellulose) (HPC) 99 % of control and 92 % of control | dose: 12.5 mg/kg/injection, schedule: Q01DX009 (ip), vehicle: Klucel (hydroxypropylcellulose) (HPC) 89 % of control | dose: 25.0 mg/kg/injection, schedule: Q01DX009 (ip), vehicle: Klucel (hydroxypropylcellulose) (HPC) 93 % of control

c1ccc2cc(-c3cc(-c4cc(-c5ccc6ccccc6c5)on4)no3)ccc2c1
inactive: dose: 60.0 mg/kg/injection, schedule: Q01DX005 (ip), vehicle: Klucel + Tween-80 100 % of control | dose: 120.0 mg/kg/injection, schedule: Q01DX005 (ip), vehicle: Klucel + Tween-80 95 % of control | dose: 240.0 mg/kg/injection, schedule: Q01DX005 (ip), vehicle: Klucel + Tween-80 91 % of control

CCO/C=C1\SC(=S)N(c2ccccc2OC)C1=O
inactive: dose: 88.0 mg/kg/injection, schedule: Q01DX009 (ip), vehicle: saline with Tween-80 118 % of control | [1] 104 % of control | dose: 132.0 mg/kg/injection, schedule: Q01DX009 (ip), vehicle: saline with Tween-80 119 % of control | dose: 178.0 mg/kg/injection, schedule: Q04DX003 (ip), vehicle: saline with Tween-80 118 % of control | [2] 112 % of control | dose: 200.0 mg/kg/injection, schedule: Q04DX003 (ip), vehicle: saline with Tween-80 109 % of control | dose: 266.0 mg/kg/injection, schedule: Q04DX003 (ip), vehicle: saline with Tween-80 118 % of control | dose: 400.0 mg/kg/injection, schedule: Q04DX003 (ip), vehicle: saline with Tween-80 122 % of control

C(=NCCN=CC1CCCC[N-]1)C1CCCC[N-]1.[Cu+2].[O-][Cl+3]([O-])([O-])O (stereo unspecified)
inactive: dose: 12.5 mg/kg/injection, schedule: Q01DX009 (ip), vehicle: saline with Tween-80 115 % of control | dose: 25.0 mg/kg/injection, schedule: Q01DX009 (ip), vehicle: saline with Tween-80 98 % of control

CC(SCc1ccccc1)C(N)C(=O)O (stereo unspecified)
inactive: dose: 50.0 mg/kg/injection, schedule: Q01DX009 (ip), vehicle: saline with Tween-80 100 % of control | [3] 103 % of control | [2] 91 % of control

CCCC(N)C(=O)NC(C(=O)O)C(C)C (stereo unspecified) (H-[Nva]-Val-OH; configuration not given here)
inactive: [4] 100 % of control | [5] 103 % of control | [6] 100 % of control

CP(=O)(N/N=C\C(=O)O)c1ccccc1 (stereo unspecified)
inactive: dose: 12.5 mg/kg/injection, schedule: Q01DX009 (ip), vehicle: other 99 % of control | dose: 25.0 mg/kg/injection, schedule: Q01DX009 (ip), vehicle: other 91 % of control | dose: 50.0 mg/kg/injection, schedule: Q01DX009 (ip), vehicle: other 100 % of control | dose: 100.0 mg/kg/injection, schedule: Q01DX009 (ip), vehicle: other 97 % of control | dose: 200.0 mg/kg/injection, schedule: Q01DX009 (ip), vehicle: other 98 % of control | dose: 400.0 mg/kg/injection, schedule: Q01DX009 (ip), vehicle: other 97 % of control

COc1cc(Br)c(C2SCC(=O)N2c2nncs2)cc1OC (stereo unspecified)
inactive: [7] 121 % of control | [8] 106 % of control | [9] 100 % of control

COC(=O)/C=C(\NC1CC(OC2C[C@](O)(C(C)=O)Cc3c(O)c4c(c(O)c32)C(=O)c2c(OC)cccc2C4=O)OC(C)C1O)C(=O)OC (stereo partly specified)
inactive: dose: 6.25 mg/kg/injection, schedule: Q04DX003 (ip), vehicle: saline with Tween-80 104 % of control | dose: 12.5 mg/kg/injection, schedule: Q04DX003 (ip), vehicle: saline with Tween-80 105 % of control and 115 % of control | dose: 25.0 mg/kg/injection, schedule: Q04DX003 (ip), vehicle: saline with Tween-80 121 % of control | [1] 121 % of control

CC(=O)Cc1nc2ccccc2[nH]c1=O
inactive: dose: 15.0 mg/kg/injection, schedule: Q01DX005 (ip), vehicle: Klucel (hydroxypropylcellulose) (HPC) 92 % of control | dose: 30.0 mg/kg/injection, schedule: Q01DX005 (ip), vehicle: Klucel (hydroxypropylcellulose) (HPC) 90 % of control and 96 % of control | [7] 90 % of control and 98 % of control | [8] 91 % of control | [9] 100 % of control

Cc1ccc(-n2c(O)c(N=Nc3ccccc3Cl)c(=O)n(-c3ccc(Br)cc3)c2=S)cc1
inactive: [10] 98 % of control | [11] 101 % of control | [12] 96 % of control

Cn1cnc2cc(N3CCCCC3)c(Nc3ccc([N+](=O)[O-])cc3[N+](=O)[O-])cc2c1=O
inactive: dose: 100.0 mg/kg/injection, schedule: Q04DX003 (ip), vehicle: Klucel (hydroxypropylcellulose) (HPC) 103 % of control | dose: 200.0 mg/kg/injection, schedule: Q04DX003 (ip), vehicle: Klucel (hydroxypropylcellulose) (HPC) 98 % of control | dose: 400.0 mg/kg/injection, schedule: Q04DX003 (ip), vehicle: Klucel (hydroxypropylcellulose) (HPC) 95 % of control

CN(C)c1ccc(C(=O)Cc2ccc3ccccc3n2)cc1
inactive: [13] 92 % of control | [14] 89 % of control | [15] 102 % of control

C/C(=C/OS(=O)(=O)C(F)(F)F)c1ccccc1
inactive: dose: 50.0 mg/kg/injection, schedule: Q01DX009 (ip), vehicle: olive oil, sesame oil, peanut oil 105 % of control | dose: 100.0 mg/kg/injection, schedule: Q01DX009 (ip), vehicle: olive oil, sesame oil, peanut oil 116 % of control | dose: 200.0 mg/kg/injection, schedule: Q01DX009 (ip), vehicle: olive oil, sesame oil, peanut oil 87 % of control

O=C1/C(=C/c2ccc(/C=C3\CCc4ccccc4C3=O)cc2)CCc2ccccc21
inactive: [13] 102 % of control | [14] 99 % of control | [15] 101 % of control

COc1ccc(/C=N/NC(N)=O)c(OC)c1OC
inactive: [13] 100 % of control | [14] 103 % of control | [15] 98 % of control

O=c1[nH]cc(I)cc1I
inactive: [3] 95 % of control | [2] 95 % of control | dose: 400.0 mg/kg/injection, schedule: Q01DX009 (ip), vehicle: saline with Tween-80 90 % of control

COC(=O)C(CSC(c1ccccc1)(c1ccccc1)c1ccccc1)NC(=O)C(CSCc1ccccc1)NC(=O)CCNC(=O)OCc1ccccc1 (stereo unspecified) ({Cbz-βAla}-Cys(Bn)-Cys(Trt)-OMe; configuration not given here)
inactive: dose: 4.0 mg/kg/injection, schedule: Q01DX009 (ip), vehicle: water 102 % of control | dose: 8.0 mg/kg/injection, schedule: Q01DX009 (ip), vehicle: water 100 % of control | dose: 12.5 mg/kg/injection, schedule: Q01DX005 (ip), vehicle: Klucel (hydroxypropylcellulose) (HPC) 99 % of control | dose: 16.0 mg/kg/injection, schedule: Q01DX009 (ip), vehicle: water 99 % of control | dose: 25.0 mg/kg/injection, schedule: Q01DX005 (ip), vehicle: Klucel (hydroxypropylcellulose) (HPC) 102 % of control | dose: 32.0 mg/kg/injection, schedule: Q01DX009 (ip), vehicle: water 99 % of control | dose: 50.0 mg/kg/injection, schedule: Q01DX005 (ip), vehicle: Klucel (hydroxypropylcellulose) (HPC) 102 % of control | dose: 64.0 mg/kg/injection, schedule: Q01DX009 (ip), vehicle: water 89 % of control | dose: 100.0 mg/kg/injection, schedule: Q01DX005 (ip), vehicle: Klucel (hydroxypropylcellulose) (HPC) 102 % of control | dose: 128.0 mg/kg/injection, schedule: Q01DX009 (ip), vehicle: water 86 % of control | dose: 200.0 mg/kg/injection, schedule: Q01DX005 (ip), vehicle: Klucel (hydroxypropylcellulose) (HPC) 103 % of control

Cc1ncc[nH]1
inactive: [4] 90 % of control | [5] 92 % of control | [6] 89 % of control

COC(=O)CCN1CCCC1CC(O)/C=C/c1ccccc1 (stereo unspecified)
inactive: [10] 93 % of control | [11] 100 % of control | [12] 106 % of control
